What was measured:
[1] = tested on: children and young adults with Dravet syndrome; assay: Study 1: Clinical Global Impression of Improvement (CGI-I); format: in vivo, Human; conditions: either 0.2 or 0.8 mg/kg/day dose
Experimental: CGI-S and CGI-I ratings were made by clinical investigators and parent/caregivers in a series of phase III trials of fenfluramine. CGI changes were measured in two randomized, controlled trials with results reported herein. Study 1 was conducted as described in Example 1 and CGI ratings were made according to a set schedule of visits made to the clinic. Tables of results and bar graphs of the statistical analyses of CGI ratings for Study 1 at visit twelve (day 113) are provided in FIGS. 1-4. […] Similar results were obtained with investigator CGI-I rating.
In Study 1, subjects were assessed using Clinical Global Impression (CGI), allowing the parent/caregiver and principal investigator to assess improvement, as well as the Quality of Life in Childhood Epilepsy (QOLCE) Scale and the Pediatric Quality of Life Inventory (PedsQL) to measure changes in the quality of life of the subject. Comparisons between treatment groups were made using Wilcoxon rank sum tests.
(§1) The CGI scale measures the change in the subject's clinical status from a specific point in time, i.e., the Baseline Period (and also referred to as the CGI-S, an initial ranking of severity). The CGI rating scale permits a global evaluation of the subject's improvement over time.

[2] = tested on: subjects with Dravet syndrome; assay: Study 1503: open-label long-term extension, CGI-I at baseline and final visit; format: in vivo, Human; conditions: OLE Final Visit
Experimental: Study 1503 was an open-label, long-term safety study of ZX008 in subjects with Dravet syndrome who successfully completed 14 weeks of treatment in 1501, 1502, or 1504 Cohorts 1 and 2. […] CGI-S(baseline scores) were determined at entry into 1503 (i.e., after completing a blinded 16 week trial) and then again at each patient's final visit. FIGS. 7 and 8, and Tables 3 and 4 present numbers of patients having each of the 7 ratings and statistical calculations of improvements.
as §1

Dravet syndrome patients [3] = conditions: cited from earlier work
Dravet syndrome patients [4] = conditions: Dravet syndrome (Devinsky, NEJM 2017); cited from earlier work
[5] = target: serotonin 5-HT2B receptor (Homo sapiens, UniProt P41595); conditions: cited from earlier work
Chain of serotonin 5-HT2B receptor (P41595 whole entry): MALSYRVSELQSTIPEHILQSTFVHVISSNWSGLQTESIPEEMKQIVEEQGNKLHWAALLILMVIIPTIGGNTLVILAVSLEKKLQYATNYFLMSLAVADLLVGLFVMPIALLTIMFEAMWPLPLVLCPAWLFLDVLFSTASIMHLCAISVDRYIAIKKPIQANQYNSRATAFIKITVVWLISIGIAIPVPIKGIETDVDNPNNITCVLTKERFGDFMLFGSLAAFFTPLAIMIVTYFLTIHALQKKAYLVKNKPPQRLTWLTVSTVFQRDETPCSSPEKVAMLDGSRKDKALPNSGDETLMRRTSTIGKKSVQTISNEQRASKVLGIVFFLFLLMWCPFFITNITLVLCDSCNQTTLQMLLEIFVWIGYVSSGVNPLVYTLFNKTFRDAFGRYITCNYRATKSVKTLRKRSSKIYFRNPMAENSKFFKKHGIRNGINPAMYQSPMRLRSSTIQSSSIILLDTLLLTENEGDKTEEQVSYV

[6] = target: T1, serotonin 5-HT2C receptor (Homo sapiens, UniProt P28335); conditions: cited from earlier work
T1 sequence (P28335 33-458): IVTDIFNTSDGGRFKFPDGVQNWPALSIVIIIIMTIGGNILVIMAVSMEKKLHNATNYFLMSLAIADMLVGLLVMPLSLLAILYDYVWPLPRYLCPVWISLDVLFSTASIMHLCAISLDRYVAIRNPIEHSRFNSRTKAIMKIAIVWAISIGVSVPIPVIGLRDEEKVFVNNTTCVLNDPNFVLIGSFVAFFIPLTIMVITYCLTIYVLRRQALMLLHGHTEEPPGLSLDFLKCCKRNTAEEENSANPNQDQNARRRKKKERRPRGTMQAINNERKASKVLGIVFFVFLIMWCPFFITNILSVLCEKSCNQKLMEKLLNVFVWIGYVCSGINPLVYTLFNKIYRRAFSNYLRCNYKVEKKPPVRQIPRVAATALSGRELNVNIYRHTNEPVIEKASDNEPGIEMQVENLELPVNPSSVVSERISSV

[7] = target: serotonin 5-HT2A receptor (Homo sapiens, UniProt P28223); conditions: cited from earlier work
Chain of serotonin 5-HT2A receptor (P28223 whole entry): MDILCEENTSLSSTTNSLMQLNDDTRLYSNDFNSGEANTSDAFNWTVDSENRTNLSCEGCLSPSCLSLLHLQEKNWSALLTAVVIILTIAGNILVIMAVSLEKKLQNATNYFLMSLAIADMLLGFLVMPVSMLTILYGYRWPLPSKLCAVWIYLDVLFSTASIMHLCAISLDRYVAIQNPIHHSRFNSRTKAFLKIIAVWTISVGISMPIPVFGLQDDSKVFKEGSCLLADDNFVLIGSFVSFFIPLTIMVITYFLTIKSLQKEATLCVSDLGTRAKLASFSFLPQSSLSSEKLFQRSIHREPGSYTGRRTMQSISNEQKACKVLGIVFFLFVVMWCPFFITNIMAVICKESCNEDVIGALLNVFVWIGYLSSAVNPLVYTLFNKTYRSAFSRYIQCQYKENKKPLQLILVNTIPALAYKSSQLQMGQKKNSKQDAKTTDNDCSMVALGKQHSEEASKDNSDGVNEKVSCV

## CCNC(C)Cc1cccc(C(F)(F)F)c1 (racemic) [fenfluramine, (RS)—N-ethyl-1-[3-(trifluoromethyl)phenyl]propan-2-amine, reference compound]
[1]
  Parents/caregivers rating their children 'very much improved' or 'much improved' (CGI-I) vs placebo group: Significantly more
[2]
  CGI-I investigator, Improved (1, 2, 3), %: 85.4%
  CGI-I investigator, Much/very much improved (1, 2), %: 64.2%
  CGI-I parent/caregiver, Improved (1, 2, 3), %: 82.3%
  CGI-I parent/caregiver, Much/very much improved (1, 2), %: 62.5%

## CC(C)(C)C(O)/C=C/c1ccc2c(c1)OCO2 (stereo not shown) [Stiripentol, stiripentol]
Dravet syndrome patients [3]
  Reduction of tonic-clonic seizure rate: 70%

## C=C(C)[C@@H]1CCC(C)=C[C@H]1c1c(O)cc(CCCCC)cc1O [cannabidiol]
Dravet syndrome patients [4]
  Cognitive function, active treatment groups vs placebo: did not achieve significant difference from placebo

## CC(N)Cc1cccc(C(F)(F)F)c1 (stereo not shown) [norfenfluramine]
[5]
  Binds to and activates serotonin 5-HT2B receptor, affinity: high affinity
[6]
  Binds to and activates serotonin 5-HT2C receptor, affinity: high affinity
[7]
  Binds to and activates serotonin 5-HT2A receptor, affinity: moderate affinity

Source: US20200306210A1 (ZOGENIX INTERNATIONAL LIMITED, priority 2017, published 2020)
